{"source": "patent US8623595B2", "about": "“Inactivation of reverse transcriptases by azido-diarylpyrimidines” (Photoimmune Biotechnology Inc., priority 2010, dated 2014)", "test_system": "HIV-1", "conditions": "for time within which capacity to inactivate HIV-1 reverse transcriptase was lost / permanence of HIV-1 reverse transcriptase inactivation: 10 nM compound, HIV-1 in MT-2 cells", "note": "Like-named read-outs stand apart in the source and are kept apart here.", "method": "MT-2 cells were contacted with HIV-1 TCID50, and 0, 2, 10, 20, or 50 nM of either DAPY (TMC120-R147681) or azido-DAPY were placed on 50μ/well plates. The plates were placed on ice for 20 minutes and then irradiated at 7.5 cm from a UV light source (UVP lamp model UVGL-25) that provides UV light at a wavelength of 365 nm and an intensity of 1.14 W/cm^2 for a period of 20 minutes. Studies of HIV-1 infected MT-2 cells contacted with DAPY but not UV irradiated, and HIV-1 infected MT-2 cells that were irradiated but not contacted with DAPY or azido-DAPY were also performed.\nThe inactivation of HIV was evaluated by a reverse transcriptase activity assay as described by Xu et al. (2009). The measurements are provided in counts per minute (cpm)."}
{"smiles": "Cc1cc(C)c(Nc2ccnc(Nc3ccc(C#N)cc3)n2)c(C)c1", "note": "[DAPY, dapivirine]", "values": [{"measurement": "time within which capacity to inactivate HIV-1 reverse transcriptase was lost", "setting": "with UV light treatment", "value": "≤ 16", "unit": "days"}, {"measurement": "permanence of HIV-1 reverse transcriptase inactivation", "setting": "with UV light", "value": "inability to produce a permanent inactivation"}, {"measurement": "time within which capacity to inactivate HIV-1 reverse transcriptase was lost", "setting": "without UV light treatment", "value": "≤ 16", "unit": "days"}, {"measurement": "permanence of HIV-1 reverse transcriptase inactivation", "setting": "without UV light", "value": "inability to produce a permanent inactivation"}, {"measurement": "inactivation of HIV-1 in time-exposure studies", "setting": "compound + UV light exposure, time-exposure studies", "value": "not observed"}]}
